{"source": "patent US10092500B2", "about": "“Oral care compositions” (BASF SE, priority 2014, dated 2018)", "key": {"[1]": {"test_system": "Streptococcus mutans Biofilm", "test": "Substantivity: S. mutans biofilm growth on pre-treated, rinsed hydroxyapatite surfaces", "type": "cell-based, S. mutans (ATCC#25175)", "conditions": "24 hr on pre-treated hydroxyapatite", "procedure": "Method to evaluate the substantivity of polymers to hydroxy apatite surfaces and the effects these polymers have on the growth of Streptococcus mutans and Saliva derived biofilms: S. mutans (ATCC#25175) is inoculated into 10 mL BHI and incubated statically at 37° C. overnight. […] Hydroxy apatite coated peg lids are pellicle treated with sterile artificial saliva 200 μl/per well of a 96 well clear plate for 30 minutes at 37° C. aerobically. The peg lids are transferred to a clear 96 well plate containing 200 μl of the designated treatments below in Jordan's with 5% sucrose. […] After 30 mins of treatment the two pegs is transferred to a 96 well plate containing 200 μl of water and it is rinsed for 10 min at 500 rpm. […] After incubation the peg lids are transferred to a rinse plate containing 200 μl of water for 5 minutes and then transferred to white 96 well plate containing 200 μl Bac-titer-Glo, this is shaken for 5 minutes and read for luminescence."}, "S. mutans (ATCC#25175)": {"test_system": "S. mutans (ATCC#25175)", "test": "Inhibition of bacterial acid production (Bromo Cresol Purple broth, OD 588/427)", "type": "cell-based", "conditions": "for Inhibition of bacterial acid production, in words: change of OD 588 / OD 427 (pH indicator)", "procedure": "Method to observe the acid production of S. mutans in a medium containing a pH indicator and glucose. Observe how xylitol and the example polymers affect acid production: A culture of S. mutans (ATCC#25175) is grown statically overnight in 10 mL liquid broth (BHI) at 37° C. […] The no treatment control has 20 μl water added. To each experimental well 180 of the inoculated BCP broth is added. To the no inoculum control 20 μl water and 20 μl filter sterilized overnight culture broth are added. […] Both wavelengths are measured every hour for several hours but before evaporation became an issue. The plates are shaken for 10 seconds before reading."}, "[2]": {"test_system": "Multispecies saliva derived Biofilm", "test": "Substantivity: multispecies saliva derived biofilm growth on pre-treated, rinsed hydroxyapatite surfaces", "type": "cell-based, human saliva", "conditions": "24 hr on pre-treated hydroxyapatite", "procedure": "The peg lids are transferred to a clear 96 well plate containing 200 μl of the designated treatments below in Jordan's with 5% sucrose. This peg/plate assembly is shaken for 5 mins and then incubated for 25 mins aerobically at 37 C. After 30 mins of treatment the two pegs is transferred to a 96 well plate containing 200 μl of water and it is rinsed for 10 min at 500 rpm. […] After incubation the peg lids are transferred to a rinse plate containing 200 μl of water for 5 minutes and then transferred to white 96 well plate containing 200 μl Bac-titer-Glo, this is shaken for 5 minutes and read for luminescence."}, "48 hour saliva biofilms": {"test_system": "48 hour saliva biofilms", "test": "Disruption of established 48 hour saliva biofilms", "type": "cell-based, pooled human saliva", "conditions": "treatment for 5 minutes; Active = 1000 ppm e-polylysine, Chelate = 0.1% Trilon Ca, Polymer = 1%; negative = increase over control", "procedure": "Method to screen combinations of actives, example polymers and chelates to identify potential synergies for biofilm disruption: Polystyrene pegs are pellicle treated with fresh pooled human saliva for 30 minutes at 37° C. aerobically. […] The pegs are added to the growth media and incubated anaerobically 37° C. At 24 hr. the pegs are removed and transferred to a fresh plate containing 200 μl of sterile BHI. And incubated anaerobically for another 24 hr at 37° C. […] Following a 5 minute rinse at room temperature, the pegs are transferred to a treatment plate containing combinations of actives, chelate and polymers. This is followed a 5 minute treatment (shaking at 500 rpm). The treated pegs are transferred to a white 96 well plate containing 200 μl Bac-titer-Glo reagent—this is incubated at room temperature for 5 minutes (shaking) and read on a plate reader for luminescence."}, "[3]": {"test_system": "Streptococcus mutans biofilm", "test": "Prevention of S. mutans biofilm development on hydroxy apatite pegs (Bac-titer-Glo luminescence)", "type": "cell-based", "conditions": "Controls column; 2% xylitol; 24 hr growth; negative = increase over control", "procedure": "To evaluate the multispecies saliva and S. mutans biofilm preventing activity of polymers and control combinations of condensants S. mutans 25175 is inoculated into 10 mL BHI and incubated statically at 37° C. overnight. […] Hydroxy apatite coated peg lids are pellicle treated with sterile artificial saliva 200 μl/per well of a 96 well clear plate for 30 minutes at 37° C. aerobic. […] Test solutions are added to a desired final concentration and water is added to bring the final volume to 200 μl."}, "[4]": {"test_system": "multispecies saliva biofilm", "test": "Prevention of multispecies saliva biofilm development on hydroxy apatite pegs (Bac-titer-Glo luminescence)", "type": "cell-based, pooled human saliva", "conditions": "Controls column; 2% xylitol; 24 hr growth", "procedure": "To evaluate the multispecies saliva and S. mutans biofilm preventing activity of polymers and control combinations of condensants Hydroxy apatite (HA) coated surfaces of a 96 peg lid (Biosurface Technologies, Bozeman, Mont.) are pellicle treated with pooled human saliva 200 μl/per well of a 96 well clear plate for 30 minutes at 37° C. aerobically. Into each well of the growth plate, clear 96 well plate, 160 μl inoculated Brain Heart Infusion (BHI) broth is added. Test solutions are added to a desired final concentration and water is added to bring the final volume to 200 μl."}}, "data": [{"smiles": "N=C(N)NCCC[C@H](N)C(=O)O", "note": "[Arginine, L-arginine]", "values": [{"measurement": "% decrease in biofilm as compared to growth control (negative indicates increased biofilm)", "setting": "[1]; % treatment 0.070%", "result": "−40", "unit": "%"}, {"measurement": "% decrease in biofilm as compared to growth control (negative indicates increased biofilm)", "setting": "[1]; % treatment 0.140%", "result": "−18", "unit": "%"}, {"measurement": "% decrease in biofilm as compared to growth control (negative indicates increased biofilm)", "setting": "[1]; % treatment 0.280%", "result": "−59", "unit": "%"}, {"measurement": "% decrease in biofilm as compared to growth control (negative indicates increased biofilm)", "setting": "[1]; % treatment 0.560%", "result": "−53", "unit": "%"}, {"measurement": "% decrease in biofilm as compared to growth control (negative indicates increased biofilm)", "setting": "[1]; % treatment 1.120%", "result": "−29", "unit": "%"}, {"measurement": "Mean Delta OD588 (stdev)", "setting": "S. mutans (ATCC#25175); 1% treatment, pH 6.3", "result": "1.054 (0.13)"}, {"measurement": "Inhibition of bacterial acid production, in words", "setting": "S. mutans (ATCC#25175)", "result": "no acid inhibiting effects"}, {"measurement": "% decrease in biofilm as compared to growth control (negative indicates increased biofilm)", "setting": "[2]; % treatment 0.070%", "result": "−28", "unit": "%"}, {"measurement": "% decrease in biofilm as compared to growth control (negative indicates increased biofilm)", "setting": "[2]; % treatment 0.140%", "result": "−20", "unit": "%"}, {"measurement": "% decrease in biofilm as compared to growth control (negative indicates increased biofilm)", "setting": "[2]; % treatment 0.280%", "result": "−24", "unit": "%"}, {"measurement": "% decrease in biofilm as compared to growth control (negative indicates increased biofilm)", "setting": "[2]; % treatment 0.560%", "result": "−22", "unit": "%"}, {"measurement": "% decrease in biofilm as compared to growth control (negative indicates increased biofilm)", "setting": "[2]; % treatment 1.120%", "result": 49, "unit": "%"}]}, {"smiles": "CCCCCCCCCCCCCCCC[n+]1ccccc1", "note": "[Cetylpyridinium chloride]", "values": [{"measurement": "% decrease in biofilm as compared to growth control (negative indicates increased biofilm)", "setting": "[1]; % treatment 0.070%", "result": 100, "unit": "%"}, {"measurement": "% decrease in biofilm as compared to growth control (negative indicates increased biofilm)", "setting": "[2]; % treatment 0.070%", "result": 98, "unit": "%"}]}, {"smiles": "O=C(O)CN(CCN(CC(=O)O)CC(=O)O)CC(=O)O", "note": "[EDTA, ethylenediaminetetraacetic acid]", "values": [{"measurement": "Mean Delta OD588 (stdev)", "setting": "S. mutans (ATCC#25175); 1% treatment, pH 7.0", "result": "0.283 (0.086)"}, {"measurement": "Inhibition of bacterial acid production, in words", "setting": "S. mutans (ATCC#25175)", "result": "no or little change demonstrating acid inhibiting effects"}]}, {"smiles": "O=C([O-])CN(CCN(CC(=O)[O-])CC(=O)[O-])CC(=O)[O-].[Ca+2].[Na+].[Na+]", "note": "[Trilon Ca, Ca EDTA]", "values": [{"measurement": "Disruption of 48 hour saliva biofilms, reduction from the No Treatment control", "setting": "48 hour saliva biofilms", "result": "−10", "unit": "%"}]}, {"smiles": "OC[C@@H](O)[C@H](O)[C@@H](O)CO", "note": "[Xylitol, xylitol]", "values": [{"measurement": "Prevention of Streptococcus mutans biofilm development, reduction from the untreated control", "setting": "[3]", "result": "−1", "unit": "%"}, {"measurement": "% decrease in biofilm as compared to growth control (negative indicates increased biofilm)", "setting": "[1]; % treatment 1.120%", "result": "−11", "unit": "%"}, {"measurement": "% decrease in biofilm as compared to growth control (negative indicates increased biofilm)", "setting": "[1]; % treatment 2.000%", "result": "−15", "unit": "%"}, {"measurement": "Mean Delta OD588 (stdev)", "setting": "S. mutans (ATCC#25175); 0.1% treatment", "result": "0.993 (0.099)"}, {"measurement": "Mean Delta OD588 (stdev)", "setting": "S. mutans (ATCC#25175); 0.5% treatment", "result": "0.841 (0.119)"}, {"measurement": "Mean Delta OD588 (stdev)", "setting": "S. mutans (ATCC#25175); 1% treatment", "result": "0.759 (0.081)"}, {"measurement": "Mean Delta OD588 (stdev)", "setting": "S. mutans (ATCC#25175); 2% treatment", "result": "0.734 (0.131)"}, {"measurement": "Inhibition of bacterial acid production, in words", "setting": "S. mutans (ATCC#25175)", "result": "acid inhibition at all concentrations tested"}, {"measurement": "Prevention of multispecies saliva biofilm development, reduction from the untreated control", "setting": "[4]", "result": 17, "unit": "%"}, {"measurement": "% decrease in biofilm as compared to growth control (negative indicates increased biofilm)", "setting": "[2]; % treatment 1.120%", "result": 14, "unit": "%"}, {"measurement": "% decrease in biofilm as compared to growth control (negative indicates increased biofilm)", "setting": "[2]; % treatment 2.000%", "result": 12, "unit": "%"}]}, {"smiles": "O=C(O)CC(O)(CC(=O)O)C(=O)O", "note": "[citric acid]", "values": [{"measurement": "Mean Delta OD588 (stdev)", "setting": "S. mutans (ATCC#25175); 1% treatment, pH 7.0", "result": "0.196 (0.029)"}, {"measurement": "Inhibition of bacterial acid production, in words", "setting": "S. mutans (ATCC#25175)", "result": "no or little change demonstrating acid inhibiting effects"}]}, {"smiles": "O=C(O)CCC(=O)O", "note": "[succinic acid]", "values": [{"measurement": "Mean Delta OD588 (stdev)", "setting": "S. mutans (ATCC#25175); 1% treatment, pH 7.4", "result": "0.323 (0.107)"}, {"measurement": "Inhibition of bacterial acid production, in words", "setting": "S. mutans (ATCC#25175)", "result": "no or little change demonstrating acid inhibiting effects"}]}]}
